In patent US20240269304A1, “BCL-XL INHIBITOR ANTIBODY-DRUG CONJUGATES AND METHODS OF USE THEREOF” (Novartis AG, priority 2020, published 2024):
Read-outs that look alike come from different tables or passages of the source.

Assays:
ALL-SIL cells = experiment: CellTiterGlo (CTG) cell viability, 72 h, ALL-SIL (Example 8); assay type: cell-based
Summary of the method: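 In RPMI with 20% FBS, ALL-SIL cells were exposed for 72 h to serially diluted payloads or ADCs (9 concentrations, triplicate) at 37 °C/5% CO2. Viability was measured as cellular ATP by CellTiterGlo luminescence, with IC50 from four-parameter fit.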

H1650 cells = experiment: CellTiterGlo (CTG) cell viability, 3D, 120 h, H1650 (Example 8); assay type: cell-based, human; settings: Homo sapiens, NCI-H1650, H1650 3D
corl279 = experiment: In vitro ADC activity with combination partners (Venetoclax, Topotecan), CellTiter-Glo 5 days, corl279 (Example 13); assay type: cell-based; settings: single agent
Experimental: (§1) Antibody drug conjugates (ADCs) targeting IgG, B7H3, CD56, DLK1, DLL3, EpCAM, and SEZ6 were tested against cancer cell lines obtained from ATCC (American Type Culture Collection) or from other commercial cell line vendors (cor1279, ncih1436, ncih146, ncih211, ncih524). The cells were cultured in media that is optimal for their growth at 5% CO2, 37° C. in a tissue culture incubator. Prior to seeding for the proliferation assay, the cells were split at least 2 days before the assay to ensure optimal growth density. On the day of seeding, cells were lifted off tissue culture flasks using 0.25% trypsin. Cell viability and cell density were determined using a cell counter (Vi-Cell XR Cell Viability Analyzer, Beckman Coulter). Cells with higher than 85% viability were seeded in white clear bottom 384-well plates (Greiner cat #781098) at a density of 1000 cells per well in 50 μL of standard growth media. Plates were incubated at 37° C. overnight in a tissue culture incubator.
(§2) The ADCs were prepared in standard phosphate buffered solution to desired concentrations. A series of 10 dilutions were made for each ADC. The prepared drug treatments were then added to the cells resulting in final concentrations of 300 nM to 0.015 nM. Combination partners (Venetoclax and Topotecan) were added at fixed concentrations. Acoustic transfer devices (Echo525, Echo550, Beckman Coulter) were used to add the ADCs or combination partners to the cells. Each treatment was tested in triplicate assay plates. Plates were incubated at 37° C. overnight or for 5 days in a tissue culture incubator. The ability of the ADCs to inhibit cell proliferation and survival was assessed using the Promega CellTiter-Glo® proliferation assay. Plates were incubated at room temperature for 20 minutes to stabilize luminescent signals prior to reading using a multimode plate reader (Pherastar, BMG). Luminescent counts of untreated cells were taken the day after seeding (Day 0 readings), and after 5 days of treatment (Day 5 readings). The Day 5 readings of the untreated cells were compared to the Day 0 readings. Assays with at least one cell doubling during the incubation period were considered valid. To evaluate the effect of the drug treatments, luminescent counts from wells containing untreated cells (100% viability) were used to normalize treated samples. The concentrations of treatment required to inhibit 50% of cell growth or survival ([…]) were calculated using a four parameter logistic regression equation.

ncih146 = experiment: In vitro ADC activity with combination partners, CellTiter-Glo 5 days, ncih146 (Example 13); assay type: cell-based; settings: single agent
Experimental: as §1, §2

IC50 (H1650 cells; experiment n1, read-out: H1650 3D CTG IC50 n1): 0.31 nM
IC50 (H1650 cells; experiment n2, read-out: H1650 3D CTG IC50 n2): 0.37 nM
IC50 (H1650 cells; mean of n1 and n2, read-out: H1650 3D CTG IC50 Mean of n1 and n2): 0.34 nM
SMILES: Cc1c(Nc2nc3ccccc3s2)nnc2c1CCCN2c1ccc(-c2cnn(C[C@]34C[C@]5(C)C[C@](C)(C3)C[C@@](OCCN3CCCC3)(C5)C4)c2C)c(C(=O)O)n1 [P21, 6-[3-(1,3-benzothiazol-2-ylamino)-4-methyl-6,7-dihydro-5H-pyrido[2,3-c]pyridazin-8-yl]-3-[1-[[3,5-dimethyl-7-(2-pyrrolidin-1-ylethoxy)-1-adamantyl]methyl]-5-methyl-pyrazol-4-yl]pyridine-2-carboxylic acid]
IC50 (ALL-SIL cells; experiment n1, read-out: ALLSIL CTG 72 h IC50 nM n1): 0.02 nM
IC50 (ALL-SIL cells; experiment n2, read-out: ALLSIL CTG 72 h IC50 nM n2): 0.05 nM
IC50 (ALL-SIL cells; mean of n1 and n2, read-out: ALLSIL CTG 72 h IC50 nM Mean of n1 and n2): 0.04 nM
GI50 (corl279; Homo sapiens, COR-L279, 120 h): 0.00242 µM
GI Amax corl279 (corl279): −88.27
GI50 (ncih146; Homo sapiens, NCI-H146, 120 h): 0.000508 µM
GI Amax ncih146 (ncih146): −98.38
